From patent US20110117168A1, “METHODS AND COMPOSITIONS FOR SOFT TISSUE REPAIR” (AFFINERGY, INC., priority 2009, published 2011)
Ends that are not written are not given here.

Columns and labels:
MSCs [1] = experiment: Osteoblast differentiation of peptide-captured MSCs (Alizarin Red S); type: cell-based, human; details: 14 days in osteoblast differentiation medium
Protocol: Osteoblast differentiation. For osteogenic differentiation, the MSCs present in the […] column eluants (see Example 6) were cultured for 14 days in complete medium supplemented with 0.1 μM dexamethasone, 50 μM ascorbate-2-phosphate, 10 mM β-glycerophosphate, and 1% antibiotic/antimycotic. Calcium mineralization was measured by Alizarin Red S (SIGMA) staining to reveal mineralizing osteoblasts (see FIG. 26, panel C (undifferentiated MSCs) and panel D (osteoblast differentiated MSCs)).

human ASCs = experiment: Biotinylated peptide cell binding specificity by flow cytometry (Neutravidin-PE); type: cell-based; details: 25 μM peptide solution, 30 min at 4° C.
From the text: (§1) The synthetic biotinylated cell binding peptide SEQ ID NO: 4 was examined for its ability to specifically bind MSCs compared to a number of other cells types including adipose-derived mesenchymal stem cells (ASCs), dermal fibroblasts, rodent MSCs, red blood cells, monocytes, lymphocytes and granulocytes. The cell binding peptide was biotinylated as described herein at Example 2. Cultured cells of each type were either purchased (ASCs and dermal fibroblasts) or isolated from rodent bone marrow (rodent MSCs) or human blood. Cells were first harvested and resuspended at 10^6/mL in PBS+2% fetal bovine serum (FBS). An aliquot of cells (50 μL) was incubated in 50 μL of peptide solution (25 μM in PBS+FBS) for 30 min at 4° C. Cells were then washed twice in PBS+FBS with 300×g centrifugation for 5 min between washes. Fluorescently-tagged neutravidin (Neutravidin-PE from INVITROGEN) was then added to the cells to label biotinylated peptide bound to cells. Neutravidin-PE was diluted 1:250 from stock and applied at 50 μL to cells. Cells were then washed in PBS+FBS, and acquired on a BD […]. Peptide reactivity was then measured as percent positivity relative to Neutravidin-PE staining without the addition of biotinylated peptide.

human MSCs = experiment: as above; type: cell-based; details: 25 μM peptide solution, 30 min at 4° C.
From the text: as §1

HUVECs [2] = experiment: Endothelial cell phenotype and anti-thrombogenic protein expression on peptide-modified collagen; type: cell-based, human; details: HUVECs cultured 24 hours; t-PA and 6-keto Prostaglandin F1a ELISA, flow cytometry
Protocol: Once immobilized on a vascular graft, endothelial cells must retain their characteristic properties of promoting endothelialization. Therefore, the phenotype, viability, and anti-thrombogenic protein expression profiles were evaluated for endothelial cells in the presence of collagen modified with the endothelial cell binding peptide SEQ ID NO: 4 (generated according to Example 7 using BS^3 reagent). […] Specifically, HUVECs were plated on SEQ ID NO: 4 peptide-modified collagen, collagen with 10 μM free SEQ ID NO: 4 peptide or collagen alone for 24 hours. Flow cytometry was performed using a BD […], and ELISAs were performed according to manufacturers instructions. (FIGS. 22A & 22B). Tissue-type Plasminogen Activator (t-PA) and 6-keto Prostaglandin F1a protein expression levels secreted in this assay are aligned with other reports on cultured HUVECS (Kimura and Yokoi-Hayashi, Biochim Biophys Acta, 1996, 1310:1-4; Merhi-Soussi et al., J Leukoc Biol, 2000, 68:881-9).

peripheral blood cells = experiment: Biotinylated peptide binding to endothelial and other cells by flow cytometry; type: cell-based, human; details: biotinylated peptide 10 μM, 30 min at 4° C.
Protocol: (§2) The synthetic biotinylated binding peptide SEQ ID NO: 4 was further examined for its ability to bind endothelial cells compared to other cell types (see FIG. 16). […] ECFCs are clonally expanded cells isolated from human umbilical cord blood, and are considered highly proliferative endothelial progenitor cells (EPCs) based on their clonogenic and proliferative potential. In another experiment, binding peptide SEQ ID NO: 4 was assayed for its ability to selectively isolate endothelial cells versus smooth muscle cells in the presence of whole blood. HUVECs or UASMCs were incubated in the presence of medium containing 20% whole blood and binding peptide SEQ ID NO: 4-conjugated magnetic beads (via biotin-SA) for 30 min. The solutions containing the bead-peptide-cell complexes were then passed through a […] LS column in a magnetic field. The column was washed, and the remaining peptide-bound cells were then released from the magnetic field and counted.

HUVECs [3] = experiment: as above; type: cell-based, human; details: biotinylated peptide 10 μM, 30 min at 4° C.
Protocol: as §2

ECFCs = experiment: as above; type: cell-based, human; details: biotinylated peptide 10 μM, 30 min at 4° C.
Protocol: as §2

MSCs [4] = experiment: Immunoreactivity of cells captured from bone marrow aspirate; type: cell-based, human; details: CD29, CD44, CD73, CD105, CD166, CD90, CD45, CD34
Protocol: This experiment was performed to examine the ability of cell binding peptide SEQ ID NO: 4 to capture MSCs directly from bone marrow aspirate in comparison to two separate antibodies against the CD105 I antigen (CD105) and the MSCA-1 stem cell antigen (MSCA-1). This experiment employed biotinylated peptides with streptavidin-coated […] magnetic beads. The peptides were biotinylated as described herein at Example 2. […] For the antibody capture experiment, magnetic beads having covalently attached CD105 or MSCA-1 antibody were employed ([…]). Prior to incubation with the peptides and antibodies, bone marrow aspirate (BMA) was mixed with 5 volumes of 10 mM ammonium chloride for 1-2 min at room temperature to lyse red blood cells. The lysate was centrifuged for 5 min at 300×g and the supernatant discarded. The cell pellet was washed with wash buffer (PBS+0.5% bovine serum albumin+0.5 mM EDTA) and cells were resuspended in […] peptide at a concentration of 10^8 per mL. For peptide binding studies, the cell suspension was incubated with the biotinylated peptides for 30 min at 4° C. to allow for binding. After incubation, cells were spun down at 300×g for 5 min, and peptide solution was aspirated. Cells were then rinsed twice with wash buffer, with centrifugation between washes. […] Colony forming units (CFUs) were counted after 14 days in culture. […]

UASMCs = experiment: Biotinylated peptide binding to endothelial and other cells by flow cytometry; type: cell-based; details: biotinylated peptide 10 μM, 30 min at 4° C.
Protocol: as §2

## SSFWDVCQGDGTCYGGGSR (SSFWDVCQGDGTCYGGGSRGSSG-{K(biotin)}; cysteine pairing not given here) [SEQ ID NO: 4, tested biotinylated with GSSGK(biotin) or other spacer at the C-terminus]
MSCs [1]
  osteoblast differentiation of captured MSCs: osteogenic pathway remains intact
Human ASCs
  binding to human ASCs (percent positivity relative to Neutravidin-PE staining): high binding
Human MSCs
  binding to human MSCs (percent positivity relative to Neutravidin-PE staining): high binding
HUVECs [2]
  endothelial cell phenotype and anti-thrombogenic protein secretion: maintained their endothelial cell phenotype and their ability to secrete anti-thrombogenic proteins
Peripheral blood cells
  cross-reactivity with peripheral blood cells: no cross-reactivity
HUVECs [3]
  cross-reactivity with HUVECs: strongly
ECFCs
  cross-reactivity with ECFCs: strongly
MSCs [4]
  immunoreactivity of isolated cells compared with CD105 isolated cells: no changes were observed
UASMCs
  cross-reactivity with UASMCs: weakly
